The term IC50 denotes the midpoint of a concentration-inhibition curve. The CC50 is the concentration at which the toxic effect on the cells reaches its halfway point. The microsomal CLint is a measure of how fast metabolising enzymes remove a compound, apart from limits set by blood flow. The low end stands for greater metabolic stability, the high end for faster metabolism. Usually half-life stands for the time needed for the level to fall by half in the phase considered.

The nature of data set [1]: Metabolic stability in human liver microsomes. On the procedure:
The compounds were also assessed in human liver microsomal stability assays, plasma protein binding, aqueous solubility (pH 7.4), and evaluation of permeability using the Caco-2 assay.
Analysis in silico of the drug-like properties of the compounds generated in this study is used to drive compound selection. Physicochemical properties (log S, log P, etc.) of all of the new scaffolds are evaluated and compared to PF-74 using StarDrop (Optibrium, UK). The likelihood of metabolism of our new scaffolds, as compared to PF-74, by the common CYP P450 isoforms, was assessed using StarDrop and its P450 module (www dot optibrium dot com/stardrop/stardrop-p450-models dot php). StarDrop's P450 models use quantum mechanical calculations of the activation energy for hydrogen abstraction or direct oxidation, based on the semi-empirical AMi method. These are combined with ligand-based models of the steric and orientation effects of the binding pockets of each P450 isoform on the accessibility of each potential site of metabolism. This total analysis results in predictions of the regioselectivity of metabolism and the lability of each site, a measure of the efficiency of product formation—both important factors governing the rate of metabolism. Compounds of Formula I identified herein that meet the criteria for potency and cytotoxicity are evaluated in in vitro ADME assays (FIG. 8). Specifically, we use microsomal stability and plasma protein binding assessment as reliable indicators of clearance and half-life in vivo. Aqueous solubility is evaluated because low solubility or stability in assay media is detrimental to the development of sound structure-activity-relationships. Low solubility can also hamper our ability to formulate analogs for future in vivo studies. A Caco-2 assay is used to assess cell permeability issues.
T1/2 is the liver microsomal half-life, CLint, CLapp, and CLh are pharmacokinetic clearance parameters.
In general terms: Liver microsomes are a subcellular fraction often used to study metabolism.

A further data set deals with HIV-1. In words: microbe, parasite or virus in culture. On the procedure:
The potency of compounds of Formula I was evaluated via single round and multicycle HIV-1 replication assays. The single round assay is used as the first level of potency testing. […] The multicycle HIV-1 replication assay uses primary isolates and primary human peripheral blood mononuclear cells (PBMCs). Toxicity is evaluated simultaneously with the cells utilized in each assay to allow determination of the therapeutic index (TI=CC50/IC50) of each compound. HIV-1 replication assays are performed in primary PBMCs such as described in Kortager, et al., 2012, J Virol. 86(16):8472-8481, Zentner, et al., 2013, ChemMedChem. 8(3):426-432 and Zentner, et al., 2013, Bioorg Med Chem Lett. 2013; 23(4): 1132-1135.

A further data set relates to HIV-1 CA hexamer protein. Briefly: Direct binding to hexameric HIV-1 CA via SPR. Particulars: sensor chip immobilized CA hexamer. The source says:
A direct binding assay was established using SPR (surface plasmon resonance) (FIGS. 5-7). This assay allows for the confirmation that maintained target specificity is maintained, and the analysis of the kinetic signatures of newly synthesized compounds allows for prioritization of compounds for antiviral testing. […] Therefore, compounds with slower off-rates are prioritized for antiviral testing, as this characteristic should translate to increased potency. Additionally, the interaction of the next-generation compounds with CA proteins from clades A1, A2, B, C, and D (FIG. 11) was quantified. Hexameric versions of these constructs were developed, given their differential assembly properties, compared to the NL4-3 variant. This can be accomplished by modelling of the CA variants and mutation of residues (either A14C/E45C or A42C/T54C) between the N-terminal domains of adjacent subunits. Second, the cross-linked hexamers were prevented from polymerizing further into hyperstable capsid-like structures by mutations (W184A and M185A). The application of this to make hexameric capsomrs was first outlined in Pomillos et al. 2010. J. Mol. Biol. 401(5):985-95. The SPR analysis indicates a compound's potential performance in the therapeutic spectrum testing against other clades in the following sub-aim and provide a facile way in which to rank order compounds for antiviral testing.
Background: Surface plasmon resonance follows binding to a sensor surface in real time, without labels.

For data set [2], the system named is cells utilized in each assay. Briefly: Toxicity (CC50) evaluated with the cells utilized in the infection assay. In kind it is cell-based. The note with it: Table 2. The protocol:
(§1) As used herein, the term “CC50” is the half-maximal cytotoxic concentration of a particular compound or agent.
(§2) The potency of compounds of Formula I was evaluated via single round and multicycle HIV-1 replication assays. The single round assay is used as the first level of potency testing. Compounds that display antiviral activity equal to or greater than PF-74 in the primary assay are quantified in the multicycle HIV-1 assays. The multicycle HIV-1 replication assay uses primary isolates and primary human peripheral blood mononuclear cells (PBMCs). Toxicity is evaluated simultaneously with the cells utilized in each assay to allow determination of the therapeutic index (TI=CC50/IC50) of each compound. HIV-1 replication assays are performed in primary PBMCs such as described in Kortager, et al., 2012, J Virol. 86(16):8472-8481, Zentner, et al., 2013, ChemMedChem. 8(3):426-432 and Zentner, et al., 2013, Bioorg Med Chem Lett. 2013; 23(4): 1132-1135.

Assay in data set [3]: as above
It is filed as cell-based. Particulars: Table 2. On the procedure:
as §1, §2

[4] abbreviates: racemates and (R)/(S) enantiomers, Table 4.
Setting [5] is: human liver microsomal stability assay, compared to PF-74.
Where [6] appears, read: liver microsomal half-life, Table 3.
The mark [7] stands for this setting: metabolic stability of racemates and (R)/(S) enantiomers, Table 5.
[8] abbreviates: inhibition of HIV-1 in the early stages of replication, Table 2.
[9] abbreviates: human, liver microsomes, T1/2, liver microsomal half-life, Table 3.
[10] abbreviates: human, liver microsomes, T1/2, metabolic stability of racemates and (R)/(S) enantiomers, Table 5.
Where [11] appears, read: human liver microsomes, Table 1.

SMILES strings stand for the structures. Where “and” joins values, the source holds several entries; their conditions need not be identical. Equal entries are not always repeated. Entries after “also recorded” stand apart in the source; their conditions may differ. Where two headings read alike, the source gives them in different places.

`Cc1[nH]c2ccccc2c1CC(=O)N[C@H](Cc1ccccc1)C(=O)N(C)c1ccccc1` [(R)-PF-74, reference compound] had a T1/2 in data set [1] (human, microsomes) of 0.6 min.

On to `Cc1[nH]c2ccccc2c1CC(=O)N[C@@H](Cc1ccccc1)C(=O)N(C)c1ccccc1` [(S)-PF-74, reference compound], for which the T1/2 in data set [1] (human, microsomes) was 0.5 min. Besides, in the data set on HIV-1 (setting [4]), the IC50 was 0.08 ± 0.0057 µM and the “Therapeutic index (CC50/IC50)” value is listed as 3075.

As to `CC(C)c1nc2c(n1CC(=O)NC(Cc1ccccc1)C(=O)N(C)c1ccccc1)CCCC2` (centres unmarked) [CX03], the “binding to HIV-1 CA hexamer (in words)” value in the data set on HIV-1 CA hexamer protein is on record as “relatively low-affinity”. For the same compound, the “improvement in metabolic stability over PF-74” value (“improvement … over PF-74” below) in data set [1] (human, microsomes) is reported as 4 fold. In the data set on HIV-1 (compared to PF-74), the “reduction in potency relative to PF-74” value came out at 10 fold.

On to `CN(C(=O)C(Cc1ccccc1)NC(=O)Cc1n[nH]c2c(N)cccc12)c1ccccc1` (centres unmarked) [Compound C4], for which, in the data set with HIV-1 CA hexamer protein, the “binding to HIV-1 CA hexamer (in words)” value is listed as “interacts with the CA hexamer similarly to PF-74; also recorded: higher affinity”. In data set [1] (setting [5]), the “improvement … over PF-74” value is 34 fold and 30 fold. This compound also gave a T1/2 in data set [1] (setting [6]) of 20 min. Moreover, in data set [1] (liver microsomes, Table 3), the CLapp stood at 67.126 mL/min/kg, the CLh worked out at 15.409 mL/min/kg, the CLint was determined as 69.6 µL/min/mg and the Eh is on record as 77. In data set [1] (liver microsomes, Table 3), this compound returned a k of 0.03481. In addition, the T1/2 in data set [1] (setting [7]) is 20 min. In data set [2], the midpoint of cytotoxicity, the CC50, lay at 284 ± 0.2 µM. For the same compound, the “increase in the therapeutic index (CC50/IC50) over PF-74” value in the data set with HIV-1 (compared to PF-74) was “over 7 fold”. The same compound displayed an IC50 in the data set on HIV-1 (setting [8]) of 0.0515 ± 0.0184 µM. For the same compound, in the data set on HIV-1 (setting [4]), 0.0515 ± 0.0184 µM corresponded to half-maximal inhibition (IC50) and the “Therapeutic index (CC50/IC50)” value was 5515.

Take `Cc1[nH]c2ccccc2c1CC(=O)NC(Cc1ccccc1)C(=O)N(C)c1ccc2[nH]ncc2c1` (centres unmarked) [Compound C11]: in data set [1] (setting [5]), the “improvement … over PF-74” value is 34 fold. The compound also gave a microsomal CLint in data set [1] (human, liver microsomes) of 78.7 µL/min/mg. The same compound showed a half-life in data set [1] (setting [9]) of 18 min. The half-life in data set [1] (setting [10]) was found to be 17.6 min. Also, in data set [1] (liver microsomes, Table 3), the CLapp is recorded as 75.866 mL/min/kg, the CLh is 15.828 mL/min/kg, the Eh amounted to 79.1 and the k stood at 0.03934. In addition, in data set [3], the 50% cytotoxic concentration (CC50) came to 366 ± 29 µM. In addition, in the data set on HIV-1 (Human immunodeficiency virus 1), the IC50 came to 0.173 ± 0.058 µM. In addition, the “Therapeutic index (CC50/IC50)” value in the data set on HIV-1 (setting [4]) was 2115.

For `CN(C(=O)C(Cc1ccccc1)NC(=O)Cc1n[nH]c2c(N)cccc12)c1ccc2[nH]ncc2c1` (centres unmarked) [Compound C12], the “improvement … over PF-74” value in data set [1] (setting [5]) is on record as 118 fold. Moreover, the microsomal CLint in data set [1] (human, liver microsomes) is 19.5 µL/min/mg. This compound also displayed a half-life in data set [1] (setting [9]) of 71 min. Also, in data set [1] (setting [10]), the half-life came out at 71 min. In data set [1] (liver microsomes, Table 3), this compound gave a CLapp of 18.819 mL/min/kg, a CLh of 9.696 mL/min/kg, an Eh of 48.5 and a k of 0.00976. For the same compound, in data set [3], the CC50 was found to be 183 ± 15 µM. Besides, the IC50 in the data set on HIV-1 (Human immunodeficiency virus 1) was 0.302 ± 0.167 µM. Besides, in the data set with HIV-1 (setting [4]), the “Therapeutic index (CC50/IC50)” value is 606.

With `Cc1[nH]c2ccc(S(=O)(=O)F)cc2c1CC(=O)NC(Cc1ccccc1)C(=O)N(C)c1ccc2cn[nH]c2c1` (centres unmarked) [Compound C13], the “binding to HIV-1 CA hexamer (in words)” value in the data set on HIV-1 CA hexamer protein was “even more potent binding than (S)-C11”. Besides, the IC50 with HIV-1 (Human immunodeficiency virus 1, 24 h, read-out: 24 h post-infection IC50) was 0.0231 ± 0.00429 µM; with HIV-1 (Human immunodeficiency virus 1, 48 h, read-out: 48 h post-infection IC50), 0.0239 ± 0.00324 µM; with HIV-1 (Human immunodeficiency virus 1, 72 h, read-out: 72 h post-infection IC50), 0.0291 ± 0.00567 µM.

For `Cc1[nH]c2ccccc2c1CC(=O)N[C@@H](Cc1ccccc1)C(=O)N(C)c1ccccc1` [PF-74, reference compound], the “binding to HIV-1 CA hexamer (in words)” value with HIV-1 CA hexamer protein was “higher affinity”. In data set [1] (setting [11]), this compound gave a CLapp of 2249.427 mL/min/kg, a CLint of 2332.7 µL/min/mg, a Clh of 19.824 mL/min/kg and an Eh of 99.12%. For the same compound, in data set [1] (setting [11]), the T1/2 stood at 0.59 min, the k is 1.166 and the “metabolic lability (in words)” value is recorded as “highly metabolically labile”. Moreover, the T1/2 in data set [1] (setting [6]) is 0.6 min. For the same compound, in data set [1] (liver microsomes, Table 3), the CLapp is 2249.427 mL/min/kg, the CLh worked out at 19.824 mL/min/kg, the CLint amounted to 2332.7 µL/min/mg and the Eh is recorded as 99.12. In data set [1] (liver microsomes, Table 3), this compound came in with a k of 1.166. In data set [1] (setting [7]), this compound came in with a T1/2 of 0.6 min. Also, half-maximal cytotoxicity in data set [2] (CC50) was put at 73 ± 15 µM. For the same compound, the IC50 in the data set with HIV-1 (setting [8]) is 0.0951 ± 0.0317 µM. Also, in the data set with HIV-1 (setting [4]), the IC50 was 0.0951 ± 0.0317 µM and the “Therapeutic index (CC50/IC50)” value was determined as 768.

In data set [1] (setting [11]), `C[C@]12CC[C@H]3[C@@H](CCC4=CC(=O)CC[C@@]43C)[C@@H]1CC[C@@H]2O` [Testosterone, reference compound] yielded a CLapp of 74.292 mL/min/kg and a Clh of 15.758 mL/min/kg. In addition, in data set [1] (liver microsomes, Table 3), the CLapp is reported as 74.292 mL/min/kg and the CLh came to 15.758 mL/min/kg.

In turn, `CC(=O)CC(c1ccccc1)c1c(O)c2ccccc2oc1=O` (centres unmarked) [Warfarin, reference compound] yielded a k in data set [1] (human) of −0.00509.
